Here are results for three compounds from ChEMBL document CHEMBL5104144, “Exploring the roles of the Cdc2-like kinases in cancers” (Bioorg Med Chem, 2022).

In assay [1] the target is T1, Dual specificity protein kinase CLK4 (Homo sapiens, UniProt Q9HAZ1). Briefly: Inhibition of human CLK4 (146 to 480 residues) expressed in Escherichia coli BL21 (DE3) Turner using MBP as substrate incubated for 60 mins in presence of [gamma-32P]ATP by radiometric kinase assay.
Assay [2] addresses T2, Dual specificity protein kinase CLK1 (Homo sapiens, UniProt P49759). Put plainly: Inhibition of CLK1 (unknown origin).
For assay [3], the target named is T1, Dual specificity protein kinase CLK4. Put plainly: Inhibition of CLK4 (unknown origin) assessed as reduction in SRSF1 phosphorylation.
Assay [4] deals with T2, Dual specificity protein kinase CLK1. Put plainly: Inhibition of CLK1 (unknown origin) assessed as reduction in SRSF10 phosphorylation.
The target in assay [5] is T1, Dual specificity protein kinase CLK4. Briefly: Inhibition of CLK4 (unknown origin).
Assay [6] has the same target. Briefly: Inhibition of CLK4 (unknown origin) assessed as reduction in SRSF10 phosphorylation.
Assay [7] can be described thus: Inhibition of GST-tagged recombinant mouse CLK2 expressed in Escherichia coli using RSPSYGRSRSRSRSRSRSRSRSNSRSRSY as substrate in presence of [gamma-32P]ATP by a liquid scintillation counter method.
Assay [8] in a line: Inhibition of GST-tagged recombinant mouse CLK1/STY expressed in Escherichia coli using RSPSYGRSRSRSRSRSRSRSRSNSRSRSY as substrate in presence of [gamma-32P]ATP by a liquid scintillation counter method.

T1 sequence (Q9HAZ1 whole entry, the tested form may be a part): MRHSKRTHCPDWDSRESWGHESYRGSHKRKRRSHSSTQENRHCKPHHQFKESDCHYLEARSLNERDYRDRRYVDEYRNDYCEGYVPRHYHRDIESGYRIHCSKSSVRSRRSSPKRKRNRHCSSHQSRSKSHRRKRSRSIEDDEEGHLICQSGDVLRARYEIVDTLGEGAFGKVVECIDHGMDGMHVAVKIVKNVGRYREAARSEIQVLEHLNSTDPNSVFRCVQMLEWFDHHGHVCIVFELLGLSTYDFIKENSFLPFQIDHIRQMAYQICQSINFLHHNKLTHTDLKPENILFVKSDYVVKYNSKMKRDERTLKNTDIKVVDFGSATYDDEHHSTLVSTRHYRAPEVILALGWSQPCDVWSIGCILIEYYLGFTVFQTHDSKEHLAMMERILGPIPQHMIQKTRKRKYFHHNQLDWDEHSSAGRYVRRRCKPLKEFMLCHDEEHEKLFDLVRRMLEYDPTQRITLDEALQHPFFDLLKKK
T2 sequence (P49759 whole entry): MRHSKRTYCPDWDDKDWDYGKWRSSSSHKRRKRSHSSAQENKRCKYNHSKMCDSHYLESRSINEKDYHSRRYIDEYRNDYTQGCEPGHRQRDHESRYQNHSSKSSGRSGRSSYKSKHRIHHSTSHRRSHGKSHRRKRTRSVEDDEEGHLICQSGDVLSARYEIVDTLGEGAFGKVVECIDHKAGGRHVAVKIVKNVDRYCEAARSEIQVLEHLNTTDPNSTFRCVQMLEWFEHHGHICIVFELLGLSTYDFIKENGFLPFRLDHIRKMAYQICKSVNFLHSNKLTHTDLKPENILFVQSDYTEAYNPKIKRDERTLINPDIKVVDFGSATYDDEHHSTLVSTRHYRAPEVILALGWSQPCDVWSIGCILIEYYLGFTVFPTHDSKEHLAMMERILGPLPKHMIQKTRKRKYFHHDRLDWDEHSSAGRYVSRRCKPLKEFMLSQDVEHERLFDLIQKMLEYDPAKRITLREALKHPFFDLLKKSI

Regarding `O=C(O)c1ccc2c(c1)nc(Nc1cccc(Cl)c1)c1ccncc12` [SILMITASERTIB], the IC50 in assay [1] is 11 nM.
For the compound `O=C(Nc1ccc2[nH]cnc2c1)c1csc(Nc2ccccc2)n1`, the IC50 in assay [2] stood at 44 nM; in assay [3] it was 24 nM; in assay [4], 44 nM; in assay [5] it was 14 nM; in assay [6] it was 14 nM.
Turning to `CCN1/C(=C/C(C)=O)Sc2ccc(OC)cc21`, the IC50 in assay [7] was 200 nM; in assay [8], 20 nM.

As usually defined, the IC50 is the concentration at which inhibition is half-maximal.
